Experimental data taken from article PMC11768739 (Viruses, 2025).
Like-named read-outs stand apart in the source and are kept apart here.

How the values were obtained:
EV68-3C protease [1] = molecular target: T1, EV68-3C protease (enterovirus D68, UniProt A1E4A3); assay: FRET peptide cleavage assay (DABCYL/EDANS 10-mer, 2C/3A site); format: biochemical
EV68-3C protease [2] = molecular target: T1, EV68-3C protease; assay: as above; format: biochemical; details: covalent (irreversible); 60 min preincubation; 25 nM enzyme; 10 μM substrate; 50 mM HEPES pH 7.5, 100 mM NaCl, 3% DMSO; unreliable is not stated

T1 sequence (A1E4A3 entry or part of it): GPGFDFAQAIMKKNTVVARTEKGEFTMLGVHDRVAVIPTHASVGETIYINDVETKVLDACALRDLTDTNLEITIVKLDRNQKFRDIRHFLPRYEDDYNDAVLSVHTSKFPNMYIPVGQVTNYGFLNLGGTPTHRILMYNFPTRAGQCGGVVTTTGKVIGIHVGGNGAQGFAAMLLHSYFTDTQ

Row | SMILES | IC50 (EV68-3C protease [1]) [µM] | IC50 (EV68-3C protease [2]) [µM]
1 | CC(C)(C)[C@H](NC(=O)C(F)(F)F)C(=O)N1C[C@H]2[C@@H]([C@H]1C(=O)N[C@H](C#N)C[C@@H]1CCNC1=O)C2(C)C [nirmatrelvir] | > 10 | 
2 | CCOC(=O)/C=C/[C@H](C[C@@H]1CCNC1=O)NC(=O)[C@@H](CC(=O)[C@@H](NC(=O)c1cc(C)on1)C(C)C)Cc1ccc(F)cc1 [rupintrivir] |  | 0.0078 ± 0.0006
3 | Cn1cnc(Cn2c(=O)[nH]/c(=N\c3cc4cn(C)nc4cc3Cl)n(Cc3cc(F)c(F)cc3F)c2=O)n1 [ensitrelvir] | > 10 | 
4 | COc1cccc2[nH]c(C(=O)N[C@@H](CC(C)C)C(=O)N[C@@H](C[C@@H]3CCNC3=O)C(=O)CO)cc12 [PF-00835231] | 1.8 ± 0.2 | 
